Laboratory results taken from patent US7087628B2, “N-heterocyclyl hydrazides as neurotrophic agents” (Ortho-McNeil Pharmaceutical, Inc., priority 2001, dated 2006).

system: Primary Rat Hippocampal Cells; experiment: Neurite outgrowth assay in primary rat hippocampal cells (MAP-2 immunofluorescence); assay type: cell-based; settings: neurite outgrowth response reported as percent of DMSO-treated control; MAP-2 fluorescence; cells 7 days in culture
Protocol: Hippocampal cells were dissected from the brains of embryonic day 18 rat pups and dissociated with trypsin (1 mg/mL) and trituration. Cells were seeded at 30,000 cells/well in 96-well plates filled with 100 μL MEM and 10% FBS. At 7 days in culture, cells were fixed with 4% paraformaldehyde and immuno-fluorescence was performed.
Cultures were incubated with normal horse serum (1:50; Vector Labs) for about 20 min, rinsed and then incubated with primary antibody, microtubule associated-protein 2 (anti-mouse MAP-2; 1:1000; Chemicon) for about 2 h at about RT. Following primary antibody, cultures were rinsed and incubated with fluorescein anti-mouse IgG (rat absorbed; 1:50; Vector Labs) for about 1 h. After fluorescein incubation, the cultures were rinsed and read in PBS on a fluorescent plate reader (excitation: 485 nm; emission: 530 nm). A compound was regarded as active if the neurite outgrowth response was greater than the mean DMSO-treated control response on the same plate. The response to test compound was reported as percent of DMSO-treated control. The signal-to-noise separation was consistent: the fluorescence from DMSO control wells is at least two-fold greater than blank wells.

First: CCC(C)(C)C(=O)C(=O)N1CCCC1C(=O)NNc1ccc2ccccc2n1 (stereo not shown) [(2)]
Second: CCC(C)(C)C(=O)C(=O)N1CCCC1C(=O)NNc1ccccn1 (stereo not shown) [Compound (1), 1-(3,3-Dimethyl-2-oxo-pentanoyl)-pyrrolidine-2-carboxylic acid N′-pyridine-2-yl-hydrazide]
The “Rat Hippocampal Cell Response” value of the first is lower: 107 for the first, 157 for the second.

`CCC(C)(C)C(=O)C(=O)N1CCCC1C(=O)NNc1ccncc1Br` (stereo not shown) [(3)] and `CCC(C)(C)C(=O)C(=O)N1CCCC1C(=O)NNc1ncc(C(F)(F)F)cc1Cl` (stereo not shown) [(8)] are the same in “Rat Hippocampal Cell Response” value: 106 for the first, 106 for the second.

Compared with `CCC(C)(C)C(=O)C(=O)N1CCCC1C(=O)NNc1cc(C)c2c(C)nn(C)c2n1` (stereo not shown) [(4)], `Cc1cc(C(F)(F)F)cc(NNC(=O)C2CCCCN2C(=O)C(=O)c2cccs2)n1` (stereo not shown) [Compound (9), 1-(2-Oxo-2-thiophen-2-yl-acetyl)piperidine-2-carboxylic acid N′-(6-methyl-4-trifluoromethyl-pyridin-2-yl)-hydrazide] is higher in “Rat Hippocampal Cell Response” value: 105 for the first, 118 for the second.

In the case of `O=C(NNc1ccccn1)[C@@H]1CCN1S(=O)(=O)Cc1ccccc1` [Compound (10), 2-Azetidinecarboxylic acid, 1-[(phenylmethyl)sulfonyl]-, 2-(2-pyridinyl)hydrazide, (2S)-], the “Rat Hippocampal Cell Response” value is reported as 115.

For `CCC(C)(C)C(=O)C(=O)N1CCCC1C(=O)NNc1c([N+](=O)[O-])c(C)nn1C` (stereo not shown) [(5)], the “Rat Hippocampal Cell Response” value was under 100.
In the case of `CCC(C)(C)C(=O)C(=O)N1CCCC1C(=O)NNc1cc(C(F)(F)F)cc(C)n1` (stereo not shown) [(6)], the “Rat Hippocampal Cell Response” value is reported as under 100.
`CCC(C)(C)C(=O)C(=O)N1CCCC1C(=O)NN(C)c1cc(C(F)(F)F)cc(C)n1` (stereo not shown) [(7)] was tested, and the “Rat Hippocampal Cell Response” value was under 100.
